From patent US3966745A, “Vinvamine series cycloalkyl-alkyl esters” (Synthelabo, priority 1973, dated 1976)

Legend:
[1] = Acute toxicity (LD50, mice, intraperitoneal); settings: mouse, in vivo, ip; intraperitoneal administration; Swiss mice of both sexes; method of Miller and Tainter
Protocol: The tests were carried out on mice of the Swiss strain of both sexes, each weighing 20 g on average. The LD50 's were calculated in accordance with the method of Miller and Tainter (Proc. Soc. exp. Biol. Med., 1944, 57, 261).

[2] = tested on: mice; test: Hypobaric anoxia in mice (survival time); type: in vivo, male mice of the Swiss strain; settings: for ED (100% increase in survival time): Mus musculus, ip, intraperitoneal administration, dose which increases survival time by 100%, residual pressure 19 cm of Hg, read-out: MAD (mean active dose), absolute value; for therapeutic index relative to that of vincamine (times more favourable): from LD50 and MAD, mice, intraperitoneal, versus vincamine
Description: The mice are kept in an atmosphere which is depleted in oxygen by creating a partial vacuum. The degree of anoxia was chosen after preliminary tests. The survival time of the control and treated animals is noted.
The chamber into which the animals are introduced is a chemical desiccator, divided into 7 compartments. Calcium oxide is placed in this chamber in order to absorb the expired carbon dioxide. This desicator is connected to a vacuum pump and to a manometer to measure the residual pressure.
The injections are carried out using a volume of 0.5 ml per 20 g of body weight.
7 animals are introduced at the same time into the chamber, i.e. 1 control mouse (treated with physiological serum), 3 mice each treated with a different dose of a reference substance, and three mice each treated with a different dose of a test substance.
The chamber is then evacuated until the residual pressure therein is 19 cm of Hg (this is achieved in approximately 30 seconds).
The survival time i.e. the time until the animals stop breathing of each of the animals is then recorded. […] The percentage increases are calculated from values obtained for each batch of animals.
The reference substance was vincamine.

Compound	LD50 [1]	ED (100% increase in survival time) [2]	therapeutic index relative to that of vincamine (times more favourable) [2]
CCC12CCCN3CCc4c(n(c5ccccc45)C(O)(C(=O)OCC4CC4)C1)C32 (stereo not shown) [SL 72-401, Cyclopropylmethyl vincaminate]	220 mg/kg	11 mg/kg	–
CCC12C=C(C(=O)OCC3CC3)n3c4c(c5ccccc53)CCN(CCC1)C42 (stereo not shown) [SL 73-005, Cyclopropylmethyl apovincaminate]	380 mg/kg	6 mg/kg	2.5 times
CCC12CCCN3CCc4c(n(c5ccccc45)C(C(=O)OCC4CC4)C1)C32 (stereo not shown) [SL 73-041, Cyclopropylmethyl desoxyvincaminate]	260 mg/kg	6 mg/kg	1.6 times
CC[C@]12CCCN3CCc4c(n(c5ccccc45)[C@@](O)(C(=O)OC)C1)[C@@H]32 [Vincamine, vincamine, reference compound]	215 mg/kg	8 mg/kg	–
